Data published in paper PMC7645366 (EMBO Molecular Medicine, 2020).
Several values for one entry are separate records, joined by “and”; a condition that tells them apart may be missing. Equal entries are not always repeated. Where two headings read alike, the source gives them in different places.

Key:
PLY [1] = molecular target: T1, PLY (Streptococcus pneumoniae serotype 4, UniProt P0C2J9); format: cell-based
LLO [2] = molecular target: T2, LLO (Listeria monocytogenes serovar 1/2a, UniProt P13128); experiment: Cytokine ELISA, THP-1 macrophages stimulated with LLO; format: cell-based; conditions: LLO 0.5 μg/ml, 100uM, 18 h
Protocol: (§1) Human monocytic leukemia THP‐1 cells (ATCC TIB‐202) were cultivated in R10 medium and maintained at density of 10^6 cells/ml. For differentiation into macrophages, THP‐1 cells were treated for 48 h with 20 ng/ml of phorbol myristate acetate (Sigma).

PLY [3] = molecular target: T1, PLY; conditions: 18 h
LLO [4] = molecular target: T2, LLO; experiment: LDH cytotoxicity assay, THP-1 macrophages, LLO; format: cell-based; conditions: THP-1, LLO 0.5 μg/ml, 100 μM, 18 h
Protocol: as §1
Cytotoxicity was determined by measuring the activity of lactate dehydrogenase enzyme released into the culture supernatant using the Cytotoxicity Detection kit (Roche) according to the manufacturer's instructions. The percentage cytotoxicity was calculated by ratio to 100% lysis control (0.1% saponin).

PLY [5] = molecular target: T1, PLY; format: cell-based; conditions: 100uM; 18 h
SLO = SLO (Streptococcus pyogenes serotype M1, UniProt P0C0I3); format: cell-based; conditions: 100uM; 18 h
SLO, sequence (P0C0I3 34-571 limits assumed): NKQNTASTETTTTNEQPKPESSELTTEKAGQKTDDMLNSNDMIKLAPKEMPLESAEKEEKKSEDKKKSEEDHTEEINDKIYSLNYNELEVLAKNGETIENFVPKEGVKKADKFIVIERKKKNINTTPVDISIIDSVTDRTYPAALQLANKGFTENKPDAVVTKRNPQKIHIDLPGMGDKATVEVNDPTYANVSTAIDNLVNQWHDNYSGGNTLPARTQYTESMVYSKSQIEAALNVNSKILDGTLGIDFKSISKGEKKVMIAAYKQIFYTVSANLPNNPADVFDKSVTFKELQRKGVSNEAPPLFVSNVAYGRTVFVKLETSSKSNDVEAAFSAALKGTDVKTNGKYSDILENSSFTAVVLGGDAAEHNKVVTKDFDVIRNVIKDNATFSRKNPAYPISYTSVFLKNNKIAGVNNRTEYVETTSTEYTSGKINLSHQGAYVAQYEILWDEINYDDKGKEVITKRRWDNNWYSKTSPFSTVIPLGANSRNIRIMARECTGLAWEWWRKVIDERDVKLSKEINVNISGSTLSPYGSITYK

T2 sequence (P13128 25-529): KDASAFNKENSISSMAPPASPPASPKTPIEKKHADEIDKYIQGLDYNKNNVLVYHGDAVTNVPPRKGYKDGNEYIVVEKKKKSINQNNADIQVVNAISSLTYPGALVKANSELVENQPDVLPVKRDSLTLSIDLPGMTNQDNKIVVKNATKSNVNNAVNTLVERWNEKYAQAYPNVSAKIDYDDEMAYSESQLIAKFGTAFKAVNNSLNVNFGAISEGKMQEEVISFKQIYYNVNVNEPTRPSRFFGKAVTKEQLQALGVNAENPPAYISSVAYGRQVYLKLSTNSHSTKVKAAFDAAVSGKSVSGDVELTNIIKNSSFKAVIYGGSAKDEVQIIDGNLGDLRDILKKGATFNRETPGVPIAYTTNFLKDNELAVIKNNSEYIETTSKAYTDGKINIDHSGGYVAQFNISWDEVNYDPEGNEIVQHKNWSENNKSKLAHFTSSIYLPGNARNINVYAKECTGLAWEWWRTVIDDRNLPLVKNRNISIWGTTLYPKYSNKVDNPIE
T1 sequence (P0C2J9 whole entry, looked up): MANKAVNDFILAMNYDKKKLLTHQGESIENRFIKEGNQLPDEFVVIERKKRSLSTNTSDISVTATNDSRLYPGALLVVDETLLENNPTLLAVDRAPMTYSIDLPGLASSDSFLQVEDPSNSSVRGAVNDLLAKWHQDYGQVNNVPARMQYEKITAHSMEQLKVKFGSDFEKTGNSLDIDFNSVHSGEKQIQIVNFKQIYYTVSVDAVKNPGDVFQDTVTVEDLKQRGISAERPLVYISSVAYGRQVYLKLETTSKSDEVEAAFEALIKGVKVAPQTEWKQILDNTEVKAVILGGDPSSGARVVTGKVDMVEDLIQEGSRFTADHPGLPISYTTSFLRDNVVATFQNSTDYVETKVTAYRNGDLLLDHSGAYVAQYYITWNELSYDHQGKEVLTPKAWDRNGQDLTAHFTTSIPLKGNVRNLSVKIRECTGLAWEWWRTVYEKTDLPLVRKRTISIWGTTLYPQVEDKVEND

| Compound | cytolysis by PLY in live imaging (PLY [1]) | IL-8 levels in THP-1 macrophages (LLO [2]; experiment 1 of 3) [pg/mL] | IL-8 levels in THP-1 macrophages (LLO [2]; experiment 2 of 3) [pg/mL] | IL-8 levels in THP-1 macrophages (LLO [2]; experiment 3 of 3) [pg/mL] | % cytotoxicity relative to positive control (lysis buffer), LDH (PLY [3]; 100 μM) | % cytotoxicity relative to positive control (lysis buffer), LDH (PLY [3]) [%] | % cytotoxicity relative to positive control (lysis buffer), LDH (LLO [4]; experiment 1 of 4) [%] | % cytotoxicity relative to positive control (lysis buffer), LDH (LLO [4]; experiment 2 of 4) [%] | % cytotoxicity relative to positive control (lysis buffer), LDH (LLO [4]; experiment 3 of 4) [%] | % cytotoxicity relative to positive control (lysis buffer), LDH (LLO [4]; experiment 4 of 4) [%] | IL-8 levels in THP-1 macrophages (PLY [5]) | IL-8 levels in THP-1 macrophages (SLO) |
| --- | --- | --- | --- | --- | --- | --- | --- | --- | --- | --- | --- | --- |
| CC(C)CCC[C@@H](C)[C@H]1CC[C@H]2[C@@H]3CC=C4C[C@@H](O)CC[C@]4(C)[C@H]3CC[C@]12C [CHO, Cholesterol, reference compound] | protection from PLY induced cytolysis | 112.8 | 87.2 | 126.9 | 27.36% and 42.05% and 42.16% | 35.29 | 42.88 | 43.52 | 31.62 | 53.89 | 104 pg/mL and 72.9 pg/mL and 80.5 pg/mL | 79.6 pg/mL and 72.8 pg/mL and 144.9 pg/mL |
| Bovine serum albumin [BSA] | cytolysis |  |  |  |  |  |  |  |  |  |  |  |
